In patent publication US20240115549A1, “TREATMENT OF MENTAL DISORDERS” (GH Research Ireland Limited, priority 2022, published 2024):
“And” between values parts separate entries of the source, which are not always exact repeats. Equal entries are not always repeated. “Also recorded” adds a separate entry of the source.

Test system: patients with postpartum depression (PPD)
Assay: Clinical trial of inhaled 5-MeO-DMT in patients with postpartum depression
Assay type: in vivo, human
Conditions: individual PPD patient
Experimental: The single-arm, open-label clinical trial will involve 15 adult female patients with clinically diagnosed postpartum depression (PPD).
The second dose (12 mg) will only be administered if: • a. A peak experience (total score of 275) has not been achieved following the 6 mg dose, and • b. The 6 mg dose was safe and well-tolerated according to the investigator, • c. Any psychoactive effects (PsE) of the prior dose have subsided, and • d. Pre-dose vital parameters and forced expiratory volume in one second (FEV1) are in normal range, or if outside of the normal range, are not clinically significant according to the investigator. • 3. Similarly, a third dose (18 mg) will only be administered if: • a. A peak experience (total score of 275) has not been achieved following the 12 mg dose, and • b. The 12 mg dose was safe and well-tolerated according to the investigator, and • c. Any PsE of the prior dose have subsided, and • d. Pre-dose vital parameters and forced expiratory volume in one second (FEV1) are in normal range, or if outside of the normal range, are not clinically significant according to the investigator.
The patients will be assessed for a peak psychedelic experience (based on a patient-scored visual analogue scale, the PE scale), sedation, and other endpoints after dosing. Follow-up visits are planned for Day 1, and Day 7 after the dosing day.
The following criteria must be met by all patients considered for clinical trial participation: • 1. Is female and in the age range between 18 and 45 years (inclusive) at screening. • 2. Has a body mass index (BMI) in the range of 18.5 and 35 kg/m^2 (inclusive) at screening. • 3. Meets the trial criteria for PPD as assessed by a trial psychiatrist or registered psychologist: • a. Diagnosis of Major Depressive Disorder without psychotic features, confirmed by the Mini-International Neuropsychiatric Interview (MINI), with peri-partum onset that began no earlier than gestation and no later than the first 4 weeks postpartum. • b. Has a Montgomery-Åsberg Depression Rating Scale (MADRS) total score of equal to or greater than 28 at screening and pre-dose on Day 0. • 6. […] Patients must have a negative pregnancy test at screening and on the pre-test day (Day −1). • 5. Is willing to delay start of other antidepressant or anxiety medication until after the end of the trial at Day 7 and agrees to keep any psychotherapy unchanged during the trial.
A potential patient who meets any of the following key exclusion criteria will be excluded from participation in this trial: • 1. Has, based on history, psychiatric assessment, and evaluation of the MINI, a current or prior diagnosis of bipolar disorder, a manic or hypomanic episode, a psychotic disorder, Major Depressive Disorder (MDD) or other mood disorder with psychotic features, obsessive compulsive disorder, post-traumatic stress disorder (PTSD), autism spectrum disorder, borderline personality disorder, schizophrenia, delusional disorder, paranoid personality disorder, schizoaffective disorder, clinically significant intellectual disability, or any other psychiatric comorbidity that renders the patient unsuitable for the trial according to the investigator's judgment. • 2. Has one or more first or second degree relatives with a current or previously diagnosed bipolar disorder, psychotic disorder or other mood disorder (including MDD) with psychotic features. • 3. Is in the judgement of a trial psychiatrist or registered psychologist, at significant risk for suicide based on history, psychiatric assessment, and evaluation of suicidal ideation and suicidal behaviour based on the Columbia-Suicide Severity Rating Scale (C-SSRS). • 4. Has taken anti-depressive medication within 14 days or 5 half-lives (whichever is longer) prior to dosing (exception: within the last 5 weeks in the case of fluoxetine). • 5.

COc1ccc2[nH]cc(CCN(C)C)c2c1 [5-MeO-DMT]
Reported adverse events: mild, short-lasting and resolved spontaneously | Standard criteria for MADRS response (>=50% improvement) and remission (total <=10): fulfilled | Tolerability of inhalation procedure / regimen (6 mg then 12 mg): well tolerated with no inhalation-related adverse events; also recorded: well tolerated | MADRS apparent sadness improvement (2 h): 5 and 4 | MADRS apparent sadness score (2 h): 0 | MADRS concentration difficulties improvement (2 h): 0 and 4 | MADRS concentration difficulties score (2 h): 0 | MADRS inability to feel improvement (2 h): 3 and 4 | MADRS inability to feel score (2 h): 0 | MADRS inner tension improvement (2 h): 5 and 4 | MADRS inner tension score (2 h): 0 | MADRS lassitude improvement (2 h): 3 and 4 | MADRS lassitude score (2 h): 0 | MADRS pessimistic thoughts improvement (2 h): 4 | MADRS pessimistic thoughts score (2 h): 0 | MADRS reduced appetite improvement (2 h): 0 and 6 | MADRS reduced appetite score (2 h): 0 | MADRS reduced sleep improvement (2 h): 0 | MADRS reported sadness improvement (2 h): 4 and 5 | MADRS reported sadness score (2 h): 0 | MADRS suicidal thoughts improvement (2 h): 0 and 1 | MADRS suicidal thoughts score (2 h): 0 | MADRS reduced sleep score (2 h (baseline carried forward)): 5 | BPRS anxiety improvement (Day 1): 6 and 5 | BPRS anxiety score (Day 1): 1 | BPRS blunted affect improvement (Day 1): 0 and 4 | BPRS blunted affect score (Day 1): 1 | BPRS conceptual disorganization improvement (Day 1): 0 and 3 | BPRS conceptual disorganization score (Day 1): 1 | BPRS depressive mood improvement (Day 1): 5 and 4 | BPRS depressive mood score (Day 1): 1 | BPRS disorientation improvement (Day 1): 0 | BPRS disorientation score (Day 1): 1 | BPRS emotional withdrawal improvement (Day 1): 4 and 5 | BPRS emotional withdrawal score (Day 1): 1 | BPRS excitement improvement (Day 1): 1 and 0 | BPRS excitement score (Day 1): 1 | BPRS grandiosity improvement (Day 1): 0 | BPRS grandiosity score (Day 1): 1 | BPRS guilt feelings improvement (Day 1): 5 | BPRS guilt feelings score (Day 1): 1 | BPRS hallucinatory behaviour improvement (Day 1): 0 | BPRS hallucinatory behaviour score (Day 1): 1 | BPRS hostility improvement (Day 1): 0 and 3 | BPRS hostility score (Day 1): 1 | BPRS mannerisms and posturing improvement (Day 1): 0 | BPRS mannerisms and posturing score (Day 1): 1 | BPRS motor retardation improvement (Day 1): 0 and 2 | BPRS motor retardation score (Day 1): 1 | BPRS somatic concern improvement (Day 1): 5 and 0 | BPRS somatic concern score (Day 1): 1 | BPRS suspiciousness improvement (Day 1): 0 | BPRS suspiciousness score (Day 1): 1 | BPRS tension improvement (Day 1): 5 and 3 | BPRS tension score (Day 1): 1 | BPRS uncooperativeness improvement (Day 1): 0 | BPRS uncooperativeness score (Day 1): 1 | BPRS unusual thought content improvement (Day 1): 0 | BPRS unusual thought content score (Day 1): 1 | MADRS apparent sadness improvement (Day 1): 5 and 4 | MADRS apparent sadness score (Day 1): 0 | MADRS concentration difficulties improvement (Day 1): 0 and 4 | MADRS concentration difficulties score (Day 1): 0 | MADRS inability to feel improvement (Day 1): 3 and 4 | MADRS inability to feel score (Day 1): 0 | MADRS inner tension improvement (Day 1): 5 and 4 | MADRS inner tension score (Day 1): 0 | MADRS lassitude improvement (Day 1): 3 and 4 | MADRS lassitude score (Day 1): 0 | MADRS pessimistic thoughts improvement (Day 1): 4 | MADRS pessimistic thoughts score (Day 1): 0 | MADRS reduced appetite improvement (Day 1): 0 and 6 | MADRS reduced appetite score (Day 1): 0 | MADRS reduced sleep improvement (Day 1): 5 | MADRS reduced sleep score (Day 1): 0 | MADRS reported sadness improvement (Day 1): 4 and 5 | MADRS reported sadness score (Day 1): 0 | MADRS suicidal thoughts improvement (Day 1): 0 and 1 | MADRS suicidal thoughts score (Day 1): 0 | BIMF TOTAL score (Day 7): 105 and 104 | BIMF item 1 (I am a good mother) score (Day 7): 6 and 5 | BIMF item 2 (I feel rested) score (Day 7): 2 and 4 | BIMF item 3 (comfortable with the way I've chosen to feed my baby) score (Day 7): 6 | BIMF item 4 (My baby and I understand each other) score (Day 7): 5 and 6 | BIMF item 5 (able to relax and enjoy time with my baby) score (Day 7): 6 | BIMF item 6 (people I can trust to care for my baby when I need a break) score (Day 7): 6 and 5 | BIMF item 8 (getting enough adult interaction) score (Day 7): 6 and 4 | BIMF item 9 (getting enough encouragement from other people) score (Day 7): 6 and 5 | BIMF item 10 (I trust my own feelings (instincts)) score (Day 7): 6 | BIMF item 11 (a little time each week to do something for myself) score (Day 7): 6 and 4 | BIMF item 12 (taking good care of my baby's physical needs) score (Day 7): 6 | BIMF item 13 (taking good care of my physical needs) score (Day 7): 5 | BIMF item 14 (good decisions about my baby's health and well being) score (Day 7): 6 | BIMF item 15 (My baby and I are getting into a routine) score (Day 7): 6 and 5 | BIMF item 16 (I worry about how other people judge me) score (Day 7): 5 | BIMF item 17 (able to take care of my baby and my other responsibilities) score (Day 7): 5 | BIMF item 18 (Anxiety or worry often interferes with my mothering ability) score (Day 7): 5 | BIMF item 19 (getting better at taking care of my baby) score (Day 7): 1 and 6 | BIMF item 20 (satisfied with the job I am doing as a new mother) score (Day 7): 5 | BIMF total score improvement, percent (Day 7): 14% and over 40% | BPRS anxiety improvement (Day 7): 6 and 5 | BPRS anxiety score (Day 7): 1 | BPRS blunted affect improvement (Day 7): 0 and 4 | BPRS blunted affect score (Day 7): 1 | BPRS conceptual disorganization improvement (Day 7): 0 and 3 | BPRS conceptual disorganization score (Day 7): 1 | BPRS depressive mood improvement (Day 7): 5 and 4 | BPRS depressive mood score (Day 7): 1 | BPRS disorientation improvement (Day 7): 0 | BPRS disorientation score (Day 7): 1 | BPRS emotional withdrawal improvement (Day 7): 4 and 5 | BPRS emotional withdrawal score (Day 7): 1 | BPRS excitement improvement (Day 7): 1 and 0 | BPRS excitement score (Day 7): 1 | BPRS grandiosity improvement (Day 7): 0 | BPRS grandiosity score (Day 7): 1 | BPRS guilt feelings improvement (Day 7): 5 | BPRS guilt feelings score (Day 7): 1 | BPRS hallucinatory behaviour improvement (Day 7): 0 | BPRS hallucinatory behaviour score (Day 7): 1 | BPRS hostility improvement (Day 7): 0 and 3 | BPRS hostility score (Day 7): 1 | BPRS mannerisms and posturing improvement (Day 7): 0 | BPRS mannerisms and posturing score (Day 7): 1 | BPRS motor retardation improvement (Day 7): 0 and 2 | BPRS motor retardation score (Day 7): 1 | BPRS somatic concern improvement (Day 7): 5 and 0 | BPRS somatic concern score (Day 7): 1 | BPRS suspiciousness improvement (Day 7): 0 | BPRS suspiciousness score (Day 7): 1 | BPRS tension improvement (Day 7): 5 and 3 | BPRS tension score (Day 7): 1 | BPRS uncooperativeness improvement (Day 7): 0 | BPRS uncooperativeness score (Day 7): 1 | BPRS unusual thought content improvement (Day 7): 0 | BPRS unusual thought content score (Day 7): 1 | MADRS apparent sadness improvement (Day 7): 5 and 4 | MADRS apparent sadness score (Day 7): 0 | MADRS concentration difficulties improvement (Day 7): 0 and 4 | MADRS concentration difficulties score (Day 7): 0 | MADRS inability to feel improvement (Day 7): 3 and 4 | MADRS inability to feel score (Day 7): 0 | MADRS inner tension improvement (Day 7): 4 | MADRS inner tension score (Day 7): 1 and 0 | MADRS lassitude improvement (Day 7): 3 and 4 | MADRS lassitude score (Day 7): 0 | MADRS pessimistic thoughts improvement (Day 7): 4 | MADRS pessimistic thoughts score (Day 7): 0 | MADRS reduced appetite improvement (Day 7): 0 and 6 | MADRS reduced appetite score (Day 7): 0 | MADRS reduced sleep improvement (Day 7): 5 | MADRS reduced sleep score (Day 7): 0 | MADRS reported sadness improvement (Day 7): 4 and 5 | MADRS reported sadness score (Day 7): 0 | MADRS suicidal thoughts improvement (Day 7): 0 and 1 | MADRS suicidal thoughts score (Day 7): 0 | Total MADRS improvement (Day 7): 41 | Total MADRS score (Day 7): 0 | BIMF TOTAL Δ (Day 7 vs Day 0): 13 and 45 | BIMF domain Adjustment Δ (Day 7 vs Day 0): 1 and 9 | BIMF domain Infant Care Δ (Day 7 vs Day 0): 0 | BIMF domain Management Δ (Day 7 vs Day 0): 5 and 13 | BIMF domain Mother-Child Interaction Δ (Day 7 vs Day 0): 2 and 7 | BIMF domain Psychological Well-being Δ (Day 7 vs Day 0): 9 and 27 | BIMF domain Self-Care Δ (Day 7 vs Day 0): 4 and 10 | BIMF domain Social Support % Improvement (Day 7 vs Day 0): approx. 27% and 27% | BIMF domain Social Support Δ (Day 7 vs Day 0): 1 and 3 | BIMF item 1 (I am a good mother) Δ (Day 7 vs Day 0): 0 and 1 | BIMF item 2 (I feel rested) Δ (Day 7 vs Day 0): 2 and 4 | BIMF item 3 (comfortable with the way I've chosen to feed my baby) Δ (Day 7 vs Day 0): 0 and 1 | BIMF item 4 (My baby and I understand each other) Δ (Day 7 vs Day 0): 0 and 1 | BIMF item 5 (able to relax and enjoy time with my baby) Δ (Day 7 vs Day 0): 1 and 5 | BIMF item 6 (people I can trust to care for my baby when I need a break) Δ (Day 7 vs Day 0): 0 | BIMF item 8 (getting enough adult interaction) Δ (Day 7 vs Day 0): 0 and 1 | BIMF item 9 (getting enough encouragement from other people) Δ (Day 7 vs Day 0): 1 and 2 | BIMF item 10 (I trust my own feelings (instincts)) Δ (Day 7 vs Day 0): 1 and 2 | BIMF item 11 (a little time each week to do something for myself) Δ (Day 7 vs Day 0): 1 and 2 | BIMF item 12 (taking good care of my baby's physical needs) Δ (Day 7 vs Day 0): 0 | BIMF item 13 (taking good care of my physical needs) Δ (Day 7 vs Day 0): 1 and 4 | BIMF item 14 (good decisions about my baby's health and well being) Δ (Day 7 vs Day 0): 0 | BIMF item 15 (My baby and I are getting into a routine) Δ (Day 7 vs Day 0): 1 | BIMF item 16 (I worry about how other people judge me) Δ (Day 7 vs Day 0): 2 and 4 | BIMF item 17 (able to take care of my baby and my other responsibilities) Δ (Day 7 vs Day 0): 0 and 3 | BIMF item 18 (Anxiety or worry often interferes with my mothering ability) Δ (Day 7 vs Day 0): 3 and 5 | BIMF item 19 (getting better at taking care of my baby) Δ (Day 7 vs Day 0): 1 and 6 | BIMF item 20 (satisfied with the job I am doing as a new mother) Δ (Day 7 vs Day 0): −1 and 4 | BPRS anxiety improvement (discharge): 6 and 5 | BPRS anxiety score (discharge): 1 | BPRS blunted affect improvement (discharge): 0 and 4 | BPRS blunted affect score (discharge): 1 | BPRS conceptual disorganization improvement (discharge): 0 and 3 | BPRS conceptual disorganization score (discharge): 1 | BPRS depressive mood improvement (discharge): 5 and 4 | BPRS depressive mood score (discharge): 1 | BPRS disorientation improvement (discharge): 0 | BPRS disorientation score (discharge): 1 | BPRS emotional withdrawal improvement (discharge): 4 and 5 | BPRS emotional withdrawal score (discharge): 1 | BPRS excitement improvement (discharge): 1 and 0 | BPRS excitement score (discharge): 1 | BPRS grandiosity improvement (discharge): 0 | BPRS grandiosity score (discharge): 1 | BPRS guilt feelings improvement (discharge): 5 | BPRS guilt feelings score (discharge): 1 | BPRS hallucinatory behaviour improvement (discharge): 0 | BPRS hallucinatory behaviour score (discharge): 1 | BPRS hostility improvement (discharge): 0 and 3 | BPRS hostility score (discharge): 1 | BPRS mannerisms and posturing improvement (discharge): 0 | BPRS mannerisms and posturing score (discharge): 1 | BPRS motor retardation improvement (discharge): 0 and 2 | BPRS motor retardation score (discharge): 1 | BPRS somatic concern improvement (discharge): 5 and 0 | BPRS somatic concern score (discharge): 1 | BPRS suspiciousness improvement (discharge): 0 | BPRS suspiciousness score (discharge): 1 | BPRS tension improvement (discharge): 3 | BPRS tension score (discharge): 1 | BPRS uncooperativeness improvement (discharge): 0 | BPRS uncooperativeness score (discharge): 1 | BPRS unusual thought content improvement (discharge): 0 | BPRS unusual thought content score (discharge): 1
